# From US9532569B2 (INSTITUT NATIONAL DE LA RECHERCHE AGRONOMIQUE, priority 2012, dated 2017)
# Key:
# [1] = test system: pea mutant rms1; assay: Inhibition of branching in the pea, application directly on the axillary bud; assay type: in vivo, Pisum sativum L.; conditions: for bud growth inhibition (length of bud/branch at node 3, 8 days after treatment at node 3): Experiment 3, FIG. 5
# Description: Generally, in the pea, the first two scales are considered to be the first two nodes, the cotyledonary node being node 0.
# The rms1 mutant is an “SMS” signal biosynthesis mutant, repressing branching of the plant.
# Tests for activity on the inhibition of branching were carried out in the following way.
# The strigolactone-deficient rms1 (ccd8) pea mutants described in Beveridge et al., 1997, were used for the test (M3T884 line derived from the Térèse variety).
# The activity of the compounds (IIa), (II′d) and (II′e) in accordance with the invention and of the comparative compound GR24 was evaluated at respective doses of 10 nM, 100 nM and 1 μM, by treatment at node 3. […]
# 24 plants were sown per treatment. 8 days after sowing, the treatment was carried out on the axillary bud at node 3, by application of 10 μl of each solution to be tested, directly on the bud, by means of a micropipette. The lateral outgrowths at nodes 1 and 2 were removed in order to encourage the growth of the axillary buds at the higher nodes. […]
# The activity of the compounds (IIa), (IIb), (IIc), (II′d), (II′e) and (II′f) in accordance with the invention was evaluated at respective doses of 100 nM and 1 μM, by treatment at node 3.
# For this, solutions containing each compound to be tested, in 1% acetone, 4% propylene glycol 1450 and 50% ethanol, were used.
# The activity of the compounds (IIa), (IIIa), (IIIb) and (IIIc) in accordance with the invention, and also of GR24 as comparative compound, was evaluated at respective doses of 100 nM and 1 μM, by treatment at node 3, according to the protocol described above with reference to experiment 2.
# A sample consisting only of the solvent, and without active compound, was also tested as negative control, termed “CTL 0”.
# In this experiment, the activity of the compound (IIIa) in accordance with the invention, and also of GR24 as comparative compound, was evaluated at respective doses of 1 nM, 10 nM, 100 nM and 1 μM, by treatment at node 3, according to the protocol described above with reference to experiment 2, for doses of 10 nM, 100 nM and 1 μM of compounds.
# A sample consisting only of the solvent, and without active compound (“CTL 0”) was also tested as a negative control. A nontreated (“NT”) control was also carried out.
# (§1) A dose-response test for evaluating the activity of the compounds by deposition at node 3 was carried out according to the protocol described above with reference to experiment 2, for the compound in accordance with the invention (IIa) and for the comparative compounds GR24, Comp. 3 and Comp. 4. Concentrations of 10 nM, 100 nM and 1 μM were tested.
# A sample consisting only of the solvent, and without active compound (“CTL 0”), was also tested as a negative control. A nontreated (“NT”) control was also carried out.
# as §1, with “Comp. 5” for “Comp. 3”, “Comp. 6.” for “Comp. 4.”, “10 nM and” for “10 nM,”, “nM” for “nM and 1 μM”, “tested. […]” for “tested.”
# The sprouting of the axillary buds at node 4 was measured 8 days after the treatment by means of a digital sliding caliper.
# The activity of the compound (IIIa) in accordance with the invention on bud growth at node 3 was evaluated at a dose of 1000 nM by treatment at node 3. The GR24 compound was tested at the same concentration as comparative compound. […]
# [2] = test system: pea rms1 mutants; assay: Hydroponic culture test in pea; assay type: in vivo, Pisum sativum L.; conditions: 8 days
# Description: For this example, ramosus (rms1) hyperbranched pea (Pisum sativum L.) mutants were used.
# More particularly, rms1 (rms1-10) hyperbranched mutant plants were used. The nutritive solution (100%) was prepared by adding the following macronutrients to 1000 l of water: HNO3 (0.28 l), (NH4)2HPO4 (120 g), Ca(NO3)2 (40 g), Mg(NO3)2 (140 g), KNO3 (550 g), (NH4)2MoO4 (0.05 g), H3BO3 (15 g), MnSO4.H2O (2 g), ZnSO4.7H2O (1 g), CuSO4.5H2O (0.25 g), Sequestrene® (10 g) (Fe-EDTA solution). The pea seeds were germinated in moist sand for 6 days, then placed in holes of a lid (35 holes/lid, 20 mm in diameter) of an opaque PVC pot containing the hydroponic culture solution (47 l, pH 5.8).
# In a first experiment, acetone or the compound to be tested (dissolved in acetone) was added to the hydroponic culture solution so as to obtain a final concentration of 0 or 1 μM of compound to be tested and 0.01% of acetone.
# The hydroponic culture solution was continually aerated by means of an aquarium pump and replaced each week. 8 days after the start of the treatment, the lengths of bud/branch (nodes 1 to 6) were measured with an electronic sliding caliper.
# This experiment was carried out for the compounds according to the invention (IIa) and (IIIb), and also the GR24 compound as comparative compound. A negative control (<<CTL 0>>), corresponding to a treatment with the solvent alone, was also carried out.
# The results (mean data on 20 plants), in terms of, on the one hand, length of the branches at nodes 3 to 5 and, on the other hand, plant height, are shown respectively in FIGS. 11 and 12.
# The same experiment was carried out for the compound in accordance with the invention (II″g) and the comparative compound GR24. Dimethyl sulfoxide (DMSO) or the compound to be tested, dissolved in DMSO, was added to the hydroponic culture solution so as to obtain a final concentration of 0 or 3 μM of compound to be tested and 0.01% of DMSO.
# The results (mean data on 10 to 12 plants), in terms, on the one hand, of length of the branches at nodes 3 to 4 and, on the other hand, of plant height, are shown respectively in FIGS. 13 and 14.
# [3] = test system: MRC5 cells; assay: In vitro cytotoxicity study on MRC5 cells (MTS); assay type: cell-based, human; conditions: Homo sapiens, MRC5, 72 hours, ± standard error, read-out: Percentage inhibition of MRC5 cell growth; for inhibition at 100 µM: 10^−4M; for inhibition at 10 µM: 10^−5M
# Description: The cytotoxicity of the compound (IIa) according to the invention, and that of GR24 and of GR5 as comparative compounds, was evaluated in vitro, at concentrations of 10^−4 M and 10^−5 M, on MRC5 cells, in DMSO, in the following way.
# MRC5 cells (human lung (fibroblasts) were cultured in Dulbecco's modified Eagle medium (DMEM) supplemented with: 25 mM of glucose, 10% (v/v) of fetal calf serum, 100 IU of penicillin, 100 μg/ml of streptomycin and 1.5 μg/ml of fungizone, and kept under 5% of CO2 at 37° C.
# 96-well plates were seeded with 2100 MRC5 cells per well in 200 μl of medium. After 24 hours, each of the compounds dissolved in DMSO was added for 72 hours, at a final concentration of 10^−4 M or 10^−5 M in a fixed volume of DMSO. The controls received an equal volume of DMSO.
# The viable cell number was measured at 490 nm with the MTS reagent (Promega), and, for each compound, the concentration causing 50% inhibition of cell growth, IC50, was calculated.
# [4] = test system: Phelipanche ramosa pv C; assay: Germinative activity on parasitic plants; assay type: in vivo; conditions: counted after 4 days
# Description: (§2) In this example, the germinative activity of the compounds in accordance with the invention (IIa) and (IIIb) and of the comparative compound GR24 was evaluated on the parasitic plants: Orobanche cumana, Orobanche minor, Striga hermonthica, Phelipanche ramosa (pv T and pv C).
# (§3) The test protocol used was the following.
# (§4) Two populations of Phelipanche ramosa were used in this study, pathovar (pv) C and T, described in the publication by Benharrat et al. (2005). Seeds of Phelipanche ramosa pathovar C were collected at Saint Martin de Fraigneau, France, on broomrapes parasitizing winter oilseed rape (Brassica napus L.) in 2005 and seeds of Phelipanche ramosa pathovar T were collected in Sarthe, France, on broomrapes developing on hemp (Cannabis sativa L.) in 2007.
# (§5) The seeds are stored dry in the dark at 25° C.
# (§6) The compounds to be studied were resuspended in acetone at 10 mmol·l^−1, then diluted with water to 1 mmol·l^−1 (water/acetone; v/v; 99/1). Dilutions of 1×10^−3 mol·l^−1 to 1×10^−15 mol·l^−1 were then prepared in a water/acetone mixture (v/v; 99/1). Seeds of parasitic plants were surface-sterilized according to the protocol described in the publication by Vieira Dos Santos et al. (2003), then resuspended in sterile water (10 g·l^−1) and distributed on a 96-well plate (in a proportion of 50 μl, i.e. approximately 100 seeds per well). After preconditioning (7 days, 21° C., in the dark, plate hermetically sealed, except for the seeds of S. hermonthica, which were preconditioned at 30° C.), the compounds to be studied were added and the volumes adjusted to 100 μl with water (water/acetone; v/v; 999/1).
# (§7) In a plate, a range of concentrations from 10^−13 mol·l^−1 to 10^−6 mol·l^−1 was applied for GR24 and (IIa) and from 10^−12 to 10^−5 mol·l^−1 for (IIIb). Controls were carried out with a water/acetone mixture (v/v; 999/1) and without seeds. The plates were incubated so as to allow germination (21° C., in the dark or 30° C. for Striga hermonthica.). After 4 days, the seeds which had germinated were counted under a stereomicroscope (SZX10, Olympus). The seeds were considered to have germinated when the radicle was sticking out of the seed tegument. Each germination test was repeated at least 3 times. For each compound tested, dose-response curves (g=f(c), where g is the germination percentage and c the concentration (mol·l^−1)), and the EC50 (median effective concentration) were modeled on the basis of a 4-parameter logistic curve calculated with SigmaPlot® 10.0.
# (§8) The percentages of maximum germination induced by the compounds tested for each parasitic plant were determined.
# [5] = test system: Phelipanche ramosa pv T; assay: Germinative activity on parasitic plants; assay type: in vivo; conditions: counted after 4 days
# Description: as §2, §3, §4, §5, §6, §7, §8
# [6] = test system: Striga hermonthica; assay: Germinative activity on parasitic plants; assay type: in vivo; conditions: counted after 4 days, 30° C.
# Description: as §2, §3
# Seeds of Striga hermonthica (Del.) Benth were collected at Gadarif, Eastern Sudan, in 1999.
# as §5, §6
# as §7, with “The seeds were considered to have germinated when the radicle was sticking out of the seed tegument. Each germination test was repeated at least 3 times.” left out
# as §8
# [7] = test system: Orobanche cumana; assay: Germinative activity on parasitic plants; assay type: in vivo; conditions: counted after 4 days
# Description: as §2, §3
# (§9) Seeds of Orobanche cumana Wallr. were collected from broomrapes parasitizing sunflower (Helianthus annuus L.), at Longeville-sur-mer, France, in 2009; seeds of clover broomrape (Orobanche minor Sm.) from a parasite of red clover (Trifolium pratense L.) were obtained from Professor K. Yoneyama (Utsunomiya University, Japan).
# as §5, §6, §7, §8
# [8] = test system: Orobanche minor; assay: Germinative activity on parasitic plants; assay type: in vivo; conditions: counted after 4 days
# Description: as §2, §3, §9, §5, §6, §7, §8
# [9] = Experiment 2, FIG. 4, 100 nM and 1 μM
# [10] = Experiment 1, FIG. 3, concentration of 1 μM
structure (smiles),measurement,setting,value
CC1=C(C)C(Sc2ccc(Br)cc2)OC1=O (stereo not shown),"inhibitory activity on bud growth (length of bud/branch at node 3, 8 days after treatment at node 3)",[1]; [9],most active
"CC(C=O)=COC1OC(=O)C(C)=C1C (stereo not shown) [Compound (IIIa), 3-((3,4-dimethyl-5-oxo-2,5-dihydrofuran-2-yl)oxy)-2-methylacrylaldehyde]","bud growth inhibition (length of bud/branch at node 3, 8 days after treatment at node 3)",[1]; 100 nM and 1 μM,"slightly less active, exhibit, however, a high activity in terms of bud growth inhibition"
same,inhibitory activity on bud growth at node 3 (length of bud/branch 8 days after treatment at node 3),"[1]; Experiment 8, FIG. 10, 1000 nM","although less than that of GR24, is highly significant"
"C=C/C(C)=C/OC1OC(=O)C(C)=C1C (stereo not shown) [Compound (IIIc), (E)-3,4-dimethyl-5-((2-methylbuta-1,3-dien-1-yl)oxy)furan-2(5H)-one]","bud growth inhibition (length of bud/branch at node 3, 8 days after treatment at node 3)",[1]; 100 nM and 1 μM,"slightly less active, exhibit, however, a high activity in terms of bud growth inhibition"
"CC1=C(C)C(Sc2ccc(C(F)(F)F)cc2)OC1=O (stereo not shown) [Compound (IIc), 3,4-dimethyl-5-((4-(trifluoromethyl)phenyl)thio)furan-2(5H)-one]","inhibitory activity on bud growth (length of bud/branch at node 3, 8 days after treatment at node 3)",[1]; [9],most active
"CC1=C(C)C(Oc2ccc(Cl)cc2)OC1=O (stereo not shown) [Compound (II′d), 5-(4-chlorophenoxy)-3,4-dimethylfuran-2(5H)-one]","inhibitory activity on bud growth (length of bud/branch at node 3, 8 days after treatment at node 3)",[1]; [10],exhibit an inhibitory activity on bud growth at node 3
"CC1=C(C)C(Oc2ccc(Br)cc2)OC1=O (stereo not shown) [Compound (II′e), 5-(4-bromophenoxy)-3,4-dimethylfuran-2(5H)-one]","inhibitory activity on bud growth (length of bud/branch at node 3, 8 days after treatment at node 3)",[1]; [10],exhibit an inhibitory activity on bud growth at node 3
"CC1=C(C)C(Oc2ccc3ccc(=O)oc3c2)OC1=O (stereo not shown) [Compound (II″g), 7-[3,4-dimethylfuran-2(5H)-one]oxycoumarin]",length of the branches at nodes 3 to 4,"[2]; 3 μM in hydroponic culture solution, FIG. 13","an activity on all the branches of nodes 3 to 4, and also an effect on plant height, which are both greater than those of the comparative compound GR24"
same,plant height,"[2]; 3 μM in hydroponic culture solution, FIG. 14","an effect on plant height, which are both greater than those of the comparative compound GR24"
CC1=CC(O/C=C2\CCOC2=O)OC1=O (stereo not shown) [GR5],inhibition at 100 µM,[3],66 ± 1%
same,inhibition at 10 µM,[3],0%
"CC1=CC(O/C=C2/C(=O)OC3c4ccccc4C[C@H]23)OC1=O (stereo partly shown) [GR24, reference compound]",inhibition at 100 µM,[3],97 ± 1%
same,inhibition at 10 µM,[3],0%
same,plant height,"[2]; 1 μM in hydroponic culture solution, FIG. 12","significant effect on plant height is also demonstrated, comparable between the comparative compound GR24 and the compound in accordance with the invention (IIa)"
same,Percentage of maximum germination induced,[4],89 ± 6%
same,Percentage of maximum germination induced,[5],87 ± 7%
same,Percentage of maximum germination induced,[6],57 ± 5%
same,Percentage of maximum germination induced,[7],78 ± 5%
same,Percentage of maximum germination induced,[8],81 ± 5%
